Earlier results, collected in patent US20080161337A1 (priority 2007, published 2008).

How the values were obtained:
[1] = tested on: SIBO; conditions: for clinical efficacy for treating SIBO: antibiotics traditionally recommended for treating SIBO
[2] = tested on: SIBO; conditions: 21 patients with SIBO
[3] = tested on: SIBO; conditions: 34 patients with SIBO and functional gastrointestinal symptoms
[4] = tested on: IBS patients; conditions: 86 IBS patients; sustained for ten weeks after a ten day course
[5] = tested on: IBS patients with abnormal LBT; conditions: 82 IBS patients with abnormal LBT; 54-day average follow up
[6] = tested on: functional bowel syndrome patients with abnormal LBT; conditions: 20 functional bowel syndrome patients with abnormal LBT; 63-day average follow up
[7] = tested on: IBS patients

Molecule: CO[C@H]1/C=C/O[C@@]2(C)Oc3c(C)c(O)c4c(O)c(c5c(nc6cc(C)ccn65)c4c3C2=O)NC(=O)/C(C)=C\C=C\[C@H](C)[C@H](O)[C@@H](C)[C@@H](O)[C@@H](C)[C@H](OC(C)=O)[C@@H]1C [rifaximin]
- solubility in water: practically insoluble in water
- effectiveness against SIBO ([1]; human, in vivo): highly effective against SIBO
- improvement in functional gastrointestinal symptoms [2]: greater with rifaximin than chlortetracycline
- patients with normalized LBT ([2]; rifaximin seven days at 1200 mg/day): 70%
- LBT results and functional gastrointestinal symptoms [3]: improved LBT results and functional gastrointestinal symptoms
- global IBS symptoms [4]: statistically significant improvement
- combined global improvement rated great and moderate [5]: 60%
- combined global improvement rated great and moderate [6]: 63%

Molecule: Cc1ncc([N+](=O)[O-])n1CCO [metronidazole]
- clinical efficacy for treating SIBO [1]: 5%

Molecule: neomycin
- clinical efficacy for treating SIBO [1]: 25%
- results versus placebo ([7]; 111 IBS patients randomized to neomycin or placebo): significantly better results
- improvement of symptoms ([7]; when the LBT was normalized): 75%
